From patent US5210193A, “Piperazine derivatives” (American Cyanamid Company, priority 1990, dated 1993)
Values after ≈ are worked out from the molar mass of the structure shown. Like-named read-outs stand apart in the source and are kept apart here.

Key:
Test in all cases: in vitro antibacterial MIC, agar plate dilution
Assay type in all cases: cell-based
Conditions in all cases: 35° C.
[1] = test system: Escherichia coli ATCC 25922
Procedure: (§1) The in vitro antimicrobial spectrum of the compounds of ths invention were determined by the agar plate dilution method with Mueller-Hinton agar and an inoculum of each test organism of approximately 10^4 colony forming units delivered by the Steers replicating device. The minimal inhibitory concentration (MIC) in mcg/ml is defined as the lowest concentration of test compound that inhibited visible growth after 18 hours incubation at 35° C. Results are given in Table I, with the test compounds identified by the number of their hereinafter described examples.

[2] = test system: Escherichia coli CMC 84-11
Procedure: as §1

Escherichia coli LL 311 = test system: Escherichia coli LL 311
Procedure: as §1

[3] = test system: Morganella morganii CMC 84-37
Procedure: as §1

[4] = test system: Proteus rettgeri CMC 84-41
Procedure: as §1

[5] = test system: Pseudomonas aeruginosa LL-1244
Procedure: as §1

[6] = test system: Pseudomonas aeruginosa VGH 84-4
Procedure: as §1

[7] = test system: Serratia marcescens K 84-18
Procedure: as §1

[8] = test system: Serratia marcescens VGH 84-30
Procedure: as §1

[9] = test system: Staphylococcus aureus ATTC 29213
Procedure: as §1

[10] = test system: Staphylococcus aureus Smith
Procedure: as §1

[11] = test system: Staphylococcus aureus VGH 84-45
Procedure: as §1

[12] = test system: Streptococcus faecalis UCI 85-19
Procedure: as §1

[13] = test system: Streptococcus faecalis VGH 84-65
Procedure: as §1

[14] = Escherichia coli, ATCC25922, 18 h, read-out: MIC
[15] = Escherichia coli, CMC8411, 18 h, read-out: MIC
[16] = Escherichia coli, LL311, 18 h, read-out: MIC
[17] = Morganella morganii, CMC8437, 18 h, read-out: MIC
[18] = Providencia rettgeri, CMC8441, 18 h, read-out: MIC
[19] = Pseudomonas aeruginosa, LL1244, 18 h, read-out: MIC
[20] = Pseudomonas aeruginosa, VGH844, 18 h, read-out: MIC
[21] = Serratia marcescens, K8418, 18 h, read-out: MIC
[22] = Serratia marcescens, VGH8430, 18 h, read-out: MIC
[23] = Staphylococcus aureus, ATTC29213, 18 h, read-out: MIC
[24] = Staphylococcus aureus, 18 h, read-out: MIC
[25] = Staphylococcus aureus, VGH8445, 18 h, read-out: MIC
[26] = Enterococcus faecalis, UCI8519, 18 h, read-out: MIC
[27] = Enterococcus faecalis, VGH8465, 18 h, read-out: MIC

| SMILES | MIC [1, 14] | MIC [2, 15] | MIC (Escherichia coli LL 311; [16]) | MIC [3, 17] | MIC [4, 18] | MIC [5, 19] | MIC [6, 20] | MIC [7, 21] | MIC [8, 22] | MIC [9, 23] | MIC [10, 24] | MIC [11, 25] | MIC [12, 26] | MIC [13, 27] | other results |
| --- | --- | --- | --- | --- | --- | --- | --- | --- | --- | --- | --- | --- | --- | --- | --- |
| COCC1CN(c2cc3c(cc2F)c(=O)c(C(=O)O)cn3C2CC2)CCN1 (stereo not shown) [Example 81, 1-Cyclopropyl-6-fluoro-1,4-dihydro-7-[3-(methoxymethyl)-1-pioerazinyl]-4-oxo-3-quinolinecarboxylic acid] | 0.25 µg/mL (≈ 0.666 µM) | 0.03 µg/mL (≈ 0.0799 µM) | 0.03 µg/mL (≈ 0.0799 µM) | 0.06 µg/mL (≈ 0.16 µM) | 0.12 µg/mL (≈ 0.32 µM) | 8 µg/mL (≈ 21.3 µM) | 2 µg/mL (≈ 5.33 µM) | 0.5 µg/mL (≈ 1.33 µM) | 4 µg/mL (≈ 10.7 µM) | 0.25 µg/mL (≈ 0.666 µM) | 0.12 µg/mL (≈ 0.32 µM) | 0.12 µg/mL (≈ 0.32 µM) | 2 µg/mL (≈ 5.33 µM) | 2 µg/mL (≈ 5.33 µM) |  |
| O=C(O)c1cn(-c2ccc(F)cc2)c2cc(N3CCNC(COc4ccccc4)C3)c(F)cc2c1=O (stereo not shown) [Example 84, 1-(4-Fluorophenvl)-6-fluoro-1,4-dihydro-4-oxo-7-[3-(phenoxymethyl)-1-piperazinyl]-3-quinolinecarboxylic acid] | 1 µg/mL (≈ 2.03 µM) | 1 µg/mL (≈ 2.03 µM) | 1 µg/mL (≈ 2.03 µM) | 2 µg/mL (≈ 4.07 µM) | 1 µg/mL (≈ 2.03 µM) | > 128 µg/mL | 32 µg/mL (≈ 65.1 µM) | 32 µg/mL (≈ 65.1 µM) | > 128 µg/mL | 1 µg/mL (≈ 2.03 µM) | 0.25 µg/mL (≈ 0.509 µM) | 0.25 µg/mL (≈ 0.509 µM) | 32 µg/mL (≈ 65.1 µM) | 32 µg/mL (≈ 65.1 µM) |  |
| CCn1cc(C(=O)O)c(=O)c2cc(F)c(N3CCN(C)C(CF)C3)c(F)c21 (racemic) [Example 113, Racemic 1-Ethyl-6,8-difluoro-7-[3-(fluoromethyl)-4-methyl-1-piperazinyl]-1,4-dihydro-4-oxo-3-quinolinecarboxylic acid] | 0.25 µg/mL (≈ 0.652 µM) | 0.25 µg/mL (≈ 0.652 µM) | 0.5 µg/mL (≈ 1.3 µM) | 1 µg/mL (≈ 2.61 µM) | 2 µg/mL (≈ 5.22 µM) | 32 µg/mL (≈ 83.5 µM) | 8 µg/mL (≈ 20.9 µM) | 2 µg/mL (≈ 5.22 µM) | 16 µg/mL (≈ 41.7 µM) | 8 µg/mL (≈ 20.9 µM) | 0.25 µg/mL (≈ 0.652 µM) | 0.25 µg/mL (≈ 0.652 µM) | 8 µg/mL (≈ 20.9 µM) | 8 µg/mL (≈ 20.9 µM) |  |
| O=C(O)c1cn(C2CC2)c2cc(N3CCNC(COc4ccccc4)C3)c(F)cc2c1=O (stereo not shown) [Example 83, 1-Cyclopropyl-6-fluoro-1,4-dihydro-4-oxo-7-[3-(phenoxymethyl)-1-piperazinyl]-3-quinolinecarboxylic acid] | 0.12 µg/mL (≈ 0.274 µM) | 0.06 µg/mL (≈ 0.137 µM) | 0.12 µg/mL (≈ 0.274 µM) | 0.12 µg/mL (≈ 0.274 µM) | 0.25 µg/mL (≈ 0.571 µM) | 32 µg/mL (≈ 73.1 µM) | 4 µg/mL (≈ 9.14 µM) | 0.5 µg/mL (≈ 1.14 µM) | 4 µg/mL (≈ 9.14 µM) | 0.25 µg/mL (≈ 0.571 µM) | 0.06 µg/mL (≈ 0.137 µM) | 0.03 µg/mL (≈ 0.0686 µM) | 2 µg/mL (≈ 4.57 µM) | 2 µg/mL (≈ 4.57 µM) |  |
| CCn1cc(C(=O)O)c(=O)c2cc(F)c(N3CCN(C)C(CF)C3)c(F)c21 (single isomer, unassigned; (+)) [Example 115, (+)-1-Ethyl-6,8-difluoro-7-[3-(fluoromethyl)-4-methyl-1-piperazinyl]-1,4-dihydro-4-oxo-3-quinolinecarboxylic acid] |  |  |  |  |  |  |  |  |  |  |  |  |  |  | MIC ([1]; 18 hours): 0.25 µg/mL (≈ 0.652 µM); MIC ([2]; 18 hours): 0.5 µg/mL (≈ 1.3 µM); MIC (Escherichia coli LL 311; 18 hours): 0.5 µg/mL (≈ 1.3 µM); MIC ([3]; 18 hours): 1 µg/mL (≈ 2.61 µM); MIC ([4]; 18 hours): 2 µg/mL (≈ 5.22 µM); MIC ([5]; 18 hours): 16 µg/mL (≈ 41.7 µM); MIC ([6]; 18 hours): 8 µg/mL (≈ 20.9 µM); MIC ([7]; 18 hours): 2 µg/mL (≈ 5.22 µM); MIC ([8]; 18 hours): 32 µg/mL (≈ 83.5 µM); MIC ([9]; 18 hours): 8 µg/mL (≈ 20.9 µM); MIC ([10]; 18 hours): 0.5 µg/mL (≈ 1.3 µM); MIC ([11]; 18 hours): 0.5 µg/mL (≈ 1.3 µM); MIC ([12]; 18 hours): 8 µg/mL (≈ 20.9 µM); MIC ([13]; 18 hours): 8 µg/mL (≈ 20.9 µM) |
| COCC1CN(c2cc3c(cc2F)c(=O)c(C(=O)O)cn3-c2ccc(F)cc2)CCN1 (stereo not shown) [Example 82, 6-Fluoro-1-(4-fluorophenyl)-1,4-dihydro-7-(3-(methoxy-methyl)-1-piperazinyl]-4-oxo-3-cuinolinecarboxylic acid] | 0.25 µg/mL (≈ 0.582 µM) | 0.12 µg/mL (≈ 0.279 µM) | 0.25 µg/mL (≈ 0.582 µM) | 1 µg/mL (≈ 2.33 µM) | 1 µg/mL (≈ 2.33 µM) | 32 µg/mL (≈ 74.5 µM) | 8 µg/mL (≈ 18.6 µM) | 2 µg/mL (≈ 4.66 µM) | 16 µg/mL (≈ 37.3 µM) | 0.5 µg/mL (≈ 1.16 µM) | 0.12 µg/mL (≈ 0.279 µM) | 0.12 µg/mL (≈ 0.279 µM) | 8 µg/mL (≈ 18.6 µM) | 8 µg/mL (≈ 18.6 µM) |  |
| CCn1cc(C(=O)O)c(=O)c2c(F)c(F)c(N3CCNC(C)C3)c(F)c21 (stereo not shown) [Example 91, 1-Ethyl-5,6,8-trifluoro-1,4-dihydro-7-(3-methyl-1-piperazinyl)-4-oxo-3-quinolinecarboxylic acid] | 0.5 µg/mL (≈ 1.35 µM) | 0.25 µg/mL (≈ 0.677 µM) | 0.25 µg/mL (≈ 0.677 µM) | 0.12 µg/mL (≈ 0.325 µM) | 0.25 µg/mL (≈ 0.677 µM) | 8 µg/mL (≈ 21.7 µM) | 8 µg/mL (≈ 21.7 µM) | 0.5 µg/mL (≈ 1.35 µM) | 16 µg/mL (≈ 43.3 µM) | 4 µg/mL (≈ 10.8 µM) | 2 µg/mL (≈ 5.42 µM) | 2 µg/mL (≈ 5.42 µM) | 32 µg/mL (≈ 86.6 µM) | 32 µg/mL (≈ 86.6 µM) |  |
| O=C(O)c1cn(-c2ccc(F)cc2)c2cc(N3CCNC(c4ccsc4)C3)c(F)cc2c1=O (stereo not shown) [Example 100] | 0.25 µg/mL (≈ 0.535 µM) | 0.12 µg/mL (≈ 0.257 µM) | 0.25 µg/mL (≈ 0.535 µM) | 0.5 µg/mL (≈ 1.07 µM) | 1 µg/mL (≈ 2.14 µM) | 16 µg/mL (≈ 34.2 µM) | 8 µg/mL (≈ 17.1 µM) | 4 µg/mL (≈ 8.56 µM) | 64 µg/mL (≈ 137 µM) | 0.06 µg/mL (≈ 0.128 µM) | 0.008 µg/mL (≈ 0.0171 µM) | 0.03 µg/mL (≈ 0.0642 µM) | 2 µg/mL (≈ 4.28 µM) | 2 µg/mL (≈ 4.28 µM) |  |

More lines, main results first:

| MIC [1, 14] | MIC [2, 15] | MIC (Escherichia coli LL 311; [16]) | MIC [3, 17] | MIC [4, 18] | MIC [5, 19] | MIC [6, 20] | MIC [7, 21] | MIC [8, 22] | MIC [9, 23] | MIC [10, 24] | MIC [11, 25] | MIC [12, 26] | MIC [13, 27] | SMILES | other results |
| --- | --- | --- | --- | --- | --- | --- | --- | --- | --- | --- | --- | --- | --- | --- | --- |
|  |  | 0.25 µg/mL (≈ 0.652 µM) | 1 µg/mL (≈ 2.61 µM) | 2 µg/mL (≈ 5.22 µM) | 16 µg/mL (≈ 41.7 µM) | 8 µg/mL (≈ 20.9 µM) | 1 µg/mL (≈ 2.61 µM) | 16 µg/mL (≈ 41.7 µM) | 8 µg/mL (≈ 20.9 µM) |  | 0.25 µg/mL (≈ 0.652 µM) | 4 µg/mL (≈ 10.4 µM) | 4 µg/mL (≈ 10.4 µM) | CCn1cc(C(=O)O)c(=O)c2cc(F)c(N3CCN(C)C(CF)C3)c(F)c21 (single isomer, unassigned) [Example 114, (-1-1-Ethyl-6,8-difluoro-7-[3-fluoromethyl)-4-methyl-1-piperazinyl]-1,4-dihydro-4-oxo-3-quinolinecarboxylic acid] | MIC ([1]; 18 hours): 0.12 µg/mL (≈ 0.313 µM); MIC ([2]; 18 hours): 0.12 µg/mL (≈ 0.313 µM); MIC ([10]; 18 hours): 0.12 µg/mL (≈ 0.313 µM) |
| 0.06 µg/mL (≈ 0.149 µM) | 0.12 µg/mL (≈ 0.299 µM) | 0.12 µg/mL (≈ 0.299 µM) | 0.25 µg/mL (≈ 0.623 µM) | 0.5 µg/mL (≈ 1.25 µM) | 8 µg/mL (≈ 19.9 µM) | 4 µg/mL (≈ 9.97 µM) | 0.25 µg/mL (≈ 0.623 µM) | 8 µg/mL (≈ 19.9 µM) | 2 µg/mL (≈ 4.98 µM) | 0.5 µg/mL (≈ 1.25 µM) | 0.5 µg/mL (≈ 1.25 µM) | 8 µg/mL (≈ 19.9 µM) | 8 µg/mL (≈ 19.9 µM) | CCn1cc(C(=O)O)c(=O)c2cc(F)c(N3CCNC(C(C)(F)F)C3)c(F)c21 (stereo not shown) [Example 117] |  |
| 0.06 µg/mL (≈ 0.145 µM) | 0.06 µg/mL (≈ 0.145 µM) | 0.12 µg/mL (≈ 0.29 µM) | 0.25 µg/mL (≈ 0.603 µM) | 0.5 µg/mL (≈ 1.21 µM) | 8 µg/mL (≈ 19.3 µM) | 4 µg/mL (≈ 9.65 µM) | 0.5 µg/mL (≈ 1.21 µM) | 8 µg/mL (≈ 19.3 µM) | 2 µg/mL (≈ 4.83 µM) | 0.12 µg/mL (≈ 0.29 µM) | 0.12 µg/mL (≈ 0.29 µM) | 2 µg/mL (≈ 4.83 µM) | 2 µg/mL (≈ 4.83 µM) | CCn1cc(C(=O)O)c(=O)c2cc(F)c(N3CCNC(c4ccccn4)C3)c(F)c21 (stereo not shown) [Example 116] |  |
